Test results reported in ChEMBL document CHEMBL1138671, “Structure-based design, synthesis, and evaluation of conformationally constrained mimetics of the second mitochondria-derived activator of caspase that target the X-linked inhibitor of apoptosis protein/caspase-9 interaction site” (J Med Chem, 2004).

Target: E3 ubiquitin-protein ligase XIAP (Homo sapiens, UniProt P98170)
Experiment: Binding affinity for the recombinant XIAP BIR3 protein in displacing a fluorescently labeled Smac peptide

E3 ubiquitin-protein ligase XIAP, sequence (P98170 whole entry): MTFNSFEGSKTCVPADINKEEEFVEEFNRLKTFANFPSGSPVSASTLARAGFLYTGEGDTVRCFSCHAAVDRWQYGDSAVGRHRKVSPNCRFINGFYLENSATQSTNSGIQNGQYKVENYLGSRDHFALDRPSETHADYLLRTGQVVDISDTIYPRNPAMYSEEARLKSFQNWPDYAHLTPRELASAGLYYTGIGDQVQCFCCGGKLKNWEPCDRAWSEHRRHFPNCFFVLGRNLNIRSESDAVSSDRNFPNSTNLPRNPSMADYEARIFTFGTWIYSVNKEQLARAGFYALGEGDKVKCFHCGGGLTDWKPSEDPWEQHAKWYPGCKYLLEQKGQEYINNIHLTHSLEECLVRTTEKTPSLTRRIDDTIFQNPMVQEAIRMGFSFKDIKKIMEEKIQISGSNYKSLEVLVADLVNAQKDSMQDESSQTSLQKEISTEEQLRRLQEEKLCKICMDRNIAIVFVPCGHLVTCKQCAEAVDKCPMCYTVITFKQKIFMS

Compound | Ki
C[C@H](N)C(=O)NC1CC[C@H]2CC[C@@H](C(=O)Nc3ccccc3)N2C1=O (some centres not stated) | > 100 µM
CCC[C@H](N)C(=O)NC1CC[C@H]2CC[C@@H](C(=O)NCc3ccccc3)N2C1=O (some centres not stated) | > 100 µM
